Values of other authors, collected in patent US20240164377A1, “LOW VOLATILITY PROMOTING WATER CONDITIONING ADJUVANTS” (Adjuvants Unlimited LLC, priority 2014, published 2024).

| Volatility relative to the diglycolamine salt (reported, see WO 2011/019652 A2) | SMILES | Volatility compared with another salt (in words) (background statement) |
| --- | --- | --- |
| about 100 times | COc1c(Cl)ccc(Cl)c1C(=O)O [free acid form of dicamba, 3,6-dichloro-2-methoxybenzoic acid] | – |
| – | COc1c(Cl)ccc(Cl)c1C(=O)O.NCCOCCO [diglycolamine salt of dicamba] | lower volatility than the dimethylamine salt of dicamba |
